From patent US8758816B2, “Compositions comprising azelastine and methods of use thereof” (priority 2004, dated 2014)

Test system: patients with seasonal allergic rhinitis (SAR)
Assay: MP 428 study: 14.3.5 Vital Sign Assessments, Safety Population
[1] = Day 14, Patients of Age 12 to 17
[2] = Day 14, Patients of Age 18 and Beyond
[3] = Day 14, baseline at Screening, Patients of Age 12 to 17
[4] = Day 14, baseline at Screening, Patients of Age 18 and Beyond
[5] = Day 14, baseline at Screening, Safety Population
[6] = Screening, Patients of Age 12 to 17
[7] = Screening, Patients of Age 18 and Beyond

## CCC(=O)O[C@]1(C(=O)SCF)[C@H](C)C[C@H]2[C@@H]3C[C@H](F)C4=CC(=O)C=C[C@]4(C)[C@@]3(F)[C@@H](O)C[C@@]21C [Fluticasone, fluticasone propionate]
Day 1, Safety Population
  Diastolic Blood Pressure, Actual, Mean: 74.0 mmHg
  Diastolic Blood Pressure, Actual, Median: 76.0 mmHg
  Diastolic Blood Pressure, Actual, Min-Max: 41-89 mmHg
  Pulse Rate, Actual, Mean: 75.0 bpm
  Pulse Rate, Actual, Median: 75.0 bpm
  Pulse Rate, Actual, Min-Max: 57-92 bpm
  Respiration, Actual, Mean: 15.8 bpm
  Respiration, Actual, Median: 16.0 bpm
  Respiration, Actual, Min-Max: 12-18 bpm
  Systolic Blood Pressure, Actual, Mean: 117.9 mmHg
  Systolic Blood Pressure, Actual, Median: 118.5 mmHg
  Systolic Blood Pressure, Actual, Min-Max: 93-142 mmHg
  Temperature, Actual, Mean: 97.89 ° F.
  Temperature, Actual, Median: 97.85 ° F.
  Temperature, Actual, Min-Max: 97.0-99.8 ° F.
Day 7, Safety Population
  Diastolic Blood Pressure, Actual, Mean: 72.7 mmHg
  Diastolic Blood Pressure, Actual, Median: 74.0 mmHg
  Diastolic Blood Pressure, Actual, Min-Max: 58-86 mmHg
  Diastolic Blood Pressure, Change from baseline, Mean: −1.5 mmHg
  Diastolic Blood Pressure, Change from baseline, Median: −1.5 mmHg
  Diastolic Blood Pressure, Change from baseline, Min-Max: −15-19 mmHg
  Pulse Rate, Actual, Mean: 75.5 bpm
  Pulse Rate, Actual, Median: 74.0 bpm
  Pulse Rate, Actual, Min-Max: 52-102 bpm
  Pulse Rate, Change from baseline, Mean: 0.5 bpm
  Pulse Rate, Change from baseline, Median: −2.0 bpm
  Pulse Rate, Change from baseline, Min-Max: −29-38 bpm
  Respiration, Actual, Mean: 16.0 bpm
  Respiration, Actual, Median: 16.0 bpm
  Respiration, Actual, Min-Max: 12-20 bpm
  Respiration, Change from baseline, Mean: 0.2 bpm
  Respiration, Change from baseline, Median: 0.0 bpm
  Respiration, Change from baseline, Min-Max: −4-4 bpm
  Systolic Blood Pressure, Actual, Mean: 116.7 mmHg
  Systolic Blood Pressure, Actual, Median: 116.0 mmHg
  Systolic Blood Pressure, Actual, Min-Max: 95-142 mmHg
  Systolic Blood Pressure, Change from baseline, Mean: −1.4 mmHg
  Systolic Blood Pressure, Change from baseline, Median: −0.5 mmHg
  Systolic Blood Pressure, Change from baseline, Min-Max: −21-15 mmHg
  Temperature, Actual, Mean: 97.90 ° F.
  Temperature, Actual, Median: 97.95 ° F.
  Temperature, Actual, Min-Max: 96.0-98.9 ° F.
  Temperature, Change from baseline, Mean: −0.03 ° F.
  Temperature, Change from baseline, Median: 0.00 ° F.
  Temperature, Change from baseline, Min-Max: −1.8-1.8 ° F.
[1]
  Body Weight for Patients of Age 12 to 17, Actual, Mean: 135.8 lb
  Body Weight for Patients of Age 12 to 17, Actual, Median: 121.5 lb
  Body Weight for Patients of Age 12 to 17, Actual, Min-Max: 87-197 lb
[2]
  Body Weight for Patients of Age 18 and Beyond, Actual, Mean: 178.2 lb
  Body Weight for Patients of Age 18 and Beyond, Actual, Median: 172.0 lb
  Body Weight for Patients of Age 18 and Beyond, Actual, Min-Max: 115-265 lb
Day 14, Safety Population
  Body Weight, Actual, Mean: 173.0 lb
  Body Weight, Actual, Median: 168.0 lb
  Body Weight, Actual, Min-Max: 87-265 lb
  Diastolic Blood Pressure, Actual, Mean: 73.6 mmHg
  Diastolic Blood Pressure, Actual, Median: 74.0 mmHg
  Diastolic Blood Pressure, Actual, Min-Max: 54-90 mmHg
  Diastolic Blood Pressure, Change from baseline, Mean: −0.4 mmHg
  Diastolic Blood Pressure, Change from baseline, Median: 0.0 mmHg
  Diastolic Blood Pressure, Change from baseline, Min-Max: −24-22 mmHg
  Pulse Rate, Actual, Mean: 75.3 bpm
  Pulse Rate, Actual, Median: 74.0 bpm
  Pulse Rate, Actual, Min-Max: 53-95 bpm
  Pulse Rate, Change from baseline, Mean: 0.3 bpm
  Pulse Rate, Change from baseline, Median: 1.0 bpm
  Pulse Rate, Change from baseline, Min-Max: −22-23 bpm
  Respiration, Actual, Mean: 15.8 bpm
  Respiration, Actual, Median: 16.0 bpm
  Respiration, Actual, Min-Max: 12-20 bpm
  Respiration, Change from baseline, Mean: 0.0 bpm
  Respiration, Change from baseline, Median: 0.0 bpm
  Respiration, Change from baseline, Min-Max: −4-4 bpm
  Systolic Blood Pressure, Actual, Mean: 118.9 mmHg
  Systolic Blood Pressure, Actual, Median: 117.0 mmHg
  Systolic Blood Pressure, Actual, Min-Max: 98-170 mmHg
  Systolic Blood Pressure, Change from baseline, Mean: 1.0 mmHg
  Systolic Blood Pressure, Change from baseline, Median: 1.5 mmHg
  Systolic Blood Pressure, Change from baseline, Min-Max: −20-40 mmHg
  Temperature, Actual, Mean: 97.86 ° F.
  Temperature, Actual, Median: 97.90 ° F.
  Temperature, Actual, Min-Max: 96.2-99.1 ° F.
  Temperature, Change from baseline, Mean: −0.03 ° F.
  Temperature, Change from baseline, Median: 0.10 ° F.
  Temperature, Change from baseline, Min-Max: −1.6-2.0 ° F.
[3]
  Body Weight for Patients of Age 12 to 17, Change from baseline, Mean: −0.5 lb
  Body Weight for Patients of Age 12 to 17, Change from baseline, Median: −0.5 lb
  Body Weight for Patients of Age 12 to 17, Change from baseline, Min-Max: −2-2 lb
[4]
  Body Weight for Patients of Age 18 and Beyond, Change from baseline, Mean: −0.5 lb
  Body Weight for Patients of Age 18 and Beyond, Change from baseline, Median: 0.0 lb
  Body Weight for Patients of Age 18 and Beyond, Change from baseline, Min-Max: −6-7 lb
[5]
  Body Weight, Change from baseline, Mean: −0.5 lb
  Body Weight, Change from baseline, Median: 0.0 lb
  Body Weight, Change from baseline, Min-Max: −6-7 lb
[6]
  Body Weight for Patients of Age 12 to 17, Actual, Mean: 136.3 lb
  Body Weight for Patients of Age 12 to 17, Actual, Median: 122.5 lb
  Body Weight for Patients of Age 12 to 17, Actual, Min-Max: 85-199 lb
[7]
  Body Weight for Patients of Age 18 and Beyond, Actual, Mean: 177.9 lb
  Body Weight for Patients of Age 18 and Beyond, Actual, Median: 169.5 lb
  Body Weight for Patients of Age 18 and Beyond, Actual, Min-Max: 117-269 lb
Screening, Safety Population
  Body Weight, Actual, Mean: 172.9 lb
  Body Weight, Actual, Median: 168.5 lb
  Body Weight, Actual, Min-Max: 85-269 lb
  Diastolic Blood Pressure, Actual, Mean: 75.6 mmHg
  Diastolic Blood Pressure, Actual, Median: 78.0 mmHg
  Diastolic Blood Pressure, Actual, Min-Max: 50-95 mmHg
  Pulse Rate, Actual, Mean: 75.5 bpm
  Pulse Rate, Actual, Median: 78.0 bpm
  Pulse Rate, Actual, Min-Max: 50-103 bpm
  Respiration, Actual, Mean: 15.7 bpm
  Respiration, Actual, Median: 16.0 bpm
  Respiration, Actual, Min-Max: 12-20 bpm
  Systolic Blood Pressure, Actual, Mean: 121.2 mmHg
  Systolic Blood Pressure, Actual, Median: 119.5 mmHg
  Systolic Blood Pressure, Actual, Min-Max: 96-156 mmHg
  Temperature, Actual, Mean: 98.04 ° F.
  Temperature, Actual, Median: 98.00 ° F.
  Temperature, Actual, Min-Max: 96.9-99.3 ° F.
